# Assay results taken from patent US10807995B2, “Thienothiophene compounds for long-acting injectable compositions and related methods” (priority 2018, dated 2020).
# Where “and” joins values, the source holds several entries; their conditions need not be identical. Equal entries are not always repeated.
# Experiments:
# [1] = Whole blood stability assay; type: in vitro ADME; conditions: prodrug 50 nM in fresh pooled human whole blood, 37 degrees C.; read-out: t1/2 at 37 degrees C. in human whole blood
# Procedure: Naltrexone prodrug stability was assessed using freshly collected whole blood (within 24-hr collection) from pooled human (n=3) donors. The incubation mixtures were prepared by spiking the prodrugs into pre-warmed (37 degrees C.) fresh whole blood to a final concentration of 50 nM. After gentle mixing, aliquots of incubation mixtures were immediately transferred into four different 96-deep well plates. One plate was used for each time point. The plates were incubated at 37 degrees C. at a shaking speed of 100 rpm. At time points 15, 30, 60 and 120 minutes, the reaction was quenched by addition of a mixture of water and acetonitrile containing the internal standard (naltrexone-D3). Time point 0 minutes was prepared separately by spiking the prodrugs into a quenched whole blood to obtain a final concentration of 50 nM. All samples were vortexed at a low speed for 15 min and centrifuged at 3900 rpm for 15 min. Supernatants were transferred into 96-well plates for LC-MS/MS analysis to monitor the depletion of the prodrugs and the formation of naltrexone.
# The amount of remaining prodrug and released naltrexone for each sample was quantitated against the calibration curves prepared with the whole blood. The human whole blood was purchased from BioreclamationIVT (Westbury, N.Y., USA). Naltrexone-D3 was purchased from Cerilliant® (Round Rock, Tex., USA). […] Where multiple runs have been completed, average values are reported.
# [2] = Pharmacokinetic evaluation of the release of naltrexone from Compound 3 in rats following a single intramuscular injection; type: in vivo, Sprague-Dawley rats; conditions: for Compound 3 conc.: plasma of individual rats (Rat 1-6)
# Procedure: Six male Sprague-Dawley rats were allowed to acclimate to the test facility for at least 3 days prior to study start. For dose administration of Compound 3, the rats were lightly anesthetized with isofluorane, the hind leg shaved and dosed intramuscularly with the formulation using a 20 G needle. […] Serial whole blood samples were collected via sublingual route (˜150 μL) at 1, 8, and 24 hours post dose, and at 2, 4, 7, 10, 15, 22, 24, 28, 35, 42, 49, 56 and 63 days post dose.
# Blood samples were placed into K2EDTA blood collection tubes. After collection, blood samples were maintained chilled (on wet ice) and centrifuged (11,500 rpm for 2 minutes at 5 degrees C.) within 30 minutes to obtain plasma. Plasma was transferred into a single vial, 1.5 mL screw cap micro-centrifuge tube with inserts and stored at −80 degrees C. until analysis.
# The formulation dosed was a crystalline suspension of Compound 3 (44.4 milligrams of Compound 3 dosed per animal), wherein the crystalline test article was characterized with a particle size distribution of Dv10=1.6 μm, Dv50=4.1 μm, and Dv90=7.7 μm (as measured via laser diffraction). The formulation was prepared the day before dosing. Details of the formulation dosed are described in Table D below.
# Results of the above intramuscular rat study of Compound 3 are shown in Tables E and F. In particular, Table E reports the average blood plasma levels of naltrexone in rat (n=6) over 63 days following intramuscular administration.
# [3] = rat plasma over 63 days after single IM Compound 3
compound,measurement,setting,value
"Cc1c(CC(=O)Oc2ccc3c4c2O[C@H]2C(=O)CC[C@@]5(O)[C@@H](C3)N(CC3CC3)CC[C@]425)sc2c(C)c(CC(=O)Oc3ccc4c5c3O[C@H]3C(=O)CC[C@@]6(O)[C@@H](C4)N(CC4CC4)CC[C@]536)sc12 [Compound 4, bis((4R,4aS,7aR,12bS)-3-(cyclopropylmethyl)-4a-hydroxy-7-oxo-2,3,4,4a,5,6,7,7a-octahydro-1H-4,12-methanobenzofuro[3,2-e]isoquinolin-9-yl) 2,2′-(3,6-dimethylthieno[3,2-b]thiophene-2,5-diyl)diacetate]",half-life at 50 nM,[1],20.7 min
"O=C(O)Cc1cc2sc(CC(=O)Oc3ccc4c5c3O[C@H]3C(=O)CC[C@@]6(O)[C@@H](C4)N(CC4CC4)CC[C@]536)cc2s1 [Compound 3i, 2-(5-(2-(((4R,4aS,7aR,12bS)-3-(cyclopropylmethyl)-4a-hydroxy-7-oxo-2,3,4,4a,5,6,7,7a-octahydro-1H-4,12-methanobenzofuro[3,2-e]isoquinolin-9-yl)oxy)-2-oxoethyl)thieno[3,2-b]thiophen-2-yl)acetic acid]",concentrations of the resultant intermediate Compound 3i,[2]; [3],generally low to not measurable
same,Compound 3i conc.,"[2]; resultant intermediate in plasma of individual rats (Rat 1-6) after single IM Compound 3, day 2",<0.2 ng/mL
same,Compound 3i conc.,"[2]; resultant intermediate in plasma of individual rats (Rat 1-6) after single IM Compound 3, day 4",<0.2 ng/mL
same,Compound 3i conc.,"[2]; resultant intermediate in plasma of individual rats (Rat 1-6) after single IM Compound 3, day 7",<0.2 ng/mL
same,Compound 3i conc.,"[2]; resultant intermediate in plasma of individual rats (Rat 1-6) after single IM Compound 3, day 10",<0.2 ng/mL
same,Compound 3i conc.,"[2]; resultant intermediate in plasma of individual rats (Rat 1-6) after single IM Compound 3, day 15",<0.2 ng/mL
same,Compound 3i conc.,"[2]; resultant intermediate in plasma of individual rats (Rat 1-6) after single IM Compound 3, day 22",<0.2 ng/mL
same,Compound 3i conc.,"[2]; resultant intermediate in plasma of individual rats (Rat 1-6) after single IM Compound 3, day 24",<0.2 ng/mL
same,Compound 3i conc.,"[2]; resultant intermediate in plasma of individual rats (Rat 1-6) after single IM Compound 3, day 28",<0.2 ng/mL
same,Compound 3i conc.,"[2]; resultant intermediate in plasma of individual rats (Rat 1-6) after single IM Compound 3, day 35",<0.2 ng/mL
same,Compound 3i conc.,"[2]; resultant intermediate in plasma of individual rats (Rat 1-6) after single IM Compound 3, day 42",<0.2 ng/mL (4×) and 0.805 ng/mL and 0.149 ng/mL
"O=C(CCc1cc2sc(CCC(=O)Oc3ccc4c5c3O[C@H]3C(=O)CC[C@@]6(O)[C@@H](C4)N(CC4CC4)CC[C@]536)cc2s1)Oc1ccc2c3c1O[C@H]1C(=O)CC[C@@]4(O)[C@@H](C2)N(CC2CC2)CC[C@]314 [Compound 5, bis((4R,4aS,7aR,12bS)-3-(cyclopropylmethyl)-4a-hydroxy-7-oxo-2,3,4,4a,5,6,7,7a-octahydro-1H-4,12-methanobenzofuro[3,2-e]isoquinolin-9-yl) 3,3′-(thieno[3,2-b]thiophene-2,5-diyl)dipropionate]",half-life at 50 nM,[1],17.1 min
"O=C(Cc1cc2cc(CC(=O)Oc3ccc4c5c3O[C@H]3C(=O)CC[C@@]6(O)[C@@H](C4)N(CC4CC4)CC[C@]536)sc2s1)Oc1ccc2c3c1O[C@H]1C(=O)CC[C@@]4(O)[C@@H](C2)N(CC2CC2)CC[C@]314 [Compound 1, bis((4R,4aS,7aR,12bS)-3-(cyclopropylmethyl)-4a-hydroxy-7-oxo-2,3,4,4a,5,6,7,7a-octahydro-1H-4,12-methanobenzofuro[3,2-e]isoquinolin-9-yl) 2,2′-(thieno[2,3-b]thiophene-2,5-diyl)diacetate]",half-life at 50 nM,[1],11 min
"O=C(Cc1csc2scc(CC(=O)Oc3ccc4c5c3O[C@H]3C(=O)CC[C@@]6(O)[C@@H](C4)N(CC4CC4)CC[C@]536)c12)Oc1ccc2c3c1O[C@H]1C(=O)CC[C@@]4(O)[C@@H](C2)N(CC2CC2)CC[C@]314 [Compound 2, bis((4R,4aS,7aR,12bS)-3-(cyclopropylmethyl)-4a-hydroxy-7-oxo-2,3,4,4a,5,6,7,7a-octahydro-1H-4,12-methanobenzofuro[3,2-e]isoquinolin-9-yl) 2,2′-(thieno[2,3-b]thiophene-3,4-diyl)diacetate]",half-life at 50 nM,[1],15.7 min
"O=C(Oc1ccc2c3c1O[C@H]1C(=O)CC[C@@]4(O)[C@@H](C2)N(CC2CC2)CC[C@]314)c1ccc(C(=O)Oc2ccc3c4c2O[C@H]2C(=O)CC[C@@]5(O)[C@@H](C3)N(CC3CC3)CC[C@]425)cc1 [Reference Compound A, NTX-3-terephthaloyl-NTX, reference compound]",half-life at 50 nM,[1],54.7 min
"O=C(Cc1csc2c(CC(=O)Oc3ccc4c5c3O[C@H]3C(=O)CC[C@@]6(O)[C@@H](C4)N(CC4CC4)CC[C@]536)csc12)Oc1ccc2c3c1O[C@H]1C(=O)CC[C@@]4(O)[C@@H](C2)N(CC2CC2)CC[C@]314 [Compound 6, bis((4R,4aS,7aR,12bS)-3-(cyclopropylmethyl)-4a-hydroxy-7-oxo-2,3,4,4a,5,6,7,7a-octahydro-1H-4,12-methanobenzofuro[3,2-e]isoquinolin-9-yl) 2,2′-(thieno[3,2-b]thiophene-3,6-diyl)diacetate]",half-life at 50 nM,[1],11 min
"O=C(Cc1cc2sc(CC(=O)Oc3ccc4c5c3O[C@H]3C(=O)CC[C@@]6(O)[C@@H](C4)N(CC4CC4)CC[C@]536)cc2s1)Oc1ccc2c3c1O[C@H]1C(=O)CC[C@@]4(O)[C@@H](C2)N(CC2CC2)CC[C@]314 [Compound 3, bis((4R,4aS,7aR,12bS)-3-(cyclopropylmethyl)-4a-hydroxy-7-oxo-2,3,4,4a,5,6,7,7a-octahydro-1H-4,12-methanobenzofuro[3,2-e]isoquinolin-9-yl) 2,2′-(thieno[3,2-b]thiophene-2,5-diyl)diacetate]",conversion of Compound 3 to naltrexone,[2]; in rats over 63 days,efficient conversion
same,Compound 3 conc.,"[2]; single IM Compound 3, day 0.042 (1 hr)",<0.1 ng/mL
same,Compound 3 conc.,"[2]; single IM Compound 3, day 0.33 (8 hr)",<0.1 ng/mL
same,Compound 3 conc.,"[2]; single IM Compound 3, day 1",<0.1 ng/mL
same,Compound 3 conc.,"[2]; single IM Compound 3, day 2",<0.1 ng/mL
same,Compound 3 conc.,"[2]; single IM Compound 3, day 4",<0.1 ng/mL
same,Compound 3 conc.,"[2]; single IM Compound 3, day 7",<0.1 ng/mL (5×) and 0.161 ng/mL
same,Compound 3 conc.,"[2]; single IM Compound 3, day 10",<0.1 ng/mL
same,Compound 3 conc.,"[2]; single IM Compound 3, day 15",<0.1 ng/mL
same,Compound 3 conc.,"[2]; single IM Compound 3, day 22",<0.1 ng/mL
same,Compound 3 conc.,"[2]; single IM Compound 3, day 24",<0.1 ng/mL
same,Compound 3 conc.,"[2]; single IM Compound 3, day 28",<0.1 ng/mL
same,Compound 3 conc.,"[2]; single IM Compound 3, day 35",<0.1 ng/mL
same,Compound 3 conc.,"[2]; single IM Compound 3, day 42",<0.1 ng/mL (5×) and 0.128 ng/mL
same,Compound 3 conc.,"[2]; single IM Compound 3, day 49",0.134 ng/mL and 0.131 ng/mL and 0.138 ng/mL and <0.1 ng/mL (2×) and 0.143 ng/mL
same,Compound 3 conc.,"[2]; single IM Compound 3, day 56",2.02 ng/mL and 0.753 ng/mL and 0.501 ng/mL and 0.281 ng/mL and 0.245 ng/mL and 0.237 ng/mL
same,Compound 3 conc.,"[2]; single IM Compound 3, day 63",0.184 ng/mL and 0.229 ng/mL and 0.223 ng/mL and 0.234 ng/mL and 0.255 ng/mL and 0.207 ng/mL
same,concentrations of parent Compound 3,[2]; [3],generally low to not measurable
same,half-life at 50 nM,[1],6.46 min
